Reference: patent US20220411397A1, “ANALOGUES OF N-ACYL-HOMOSERINE LACTONES AND PHARMACEUTICAL COMPOSITION COMPRISING SAME” (SORBONNE UNIVERSITE, priority 2019, published 2022)
Like-named read-outs stand apart in the source and are kept apart here.

Key:
LasR receptor = biological target: T1, LasR receptor (Pseudomonas aeruginosa, UniProt P25084); assay: Activation of the LasR receptor on bacterial reporter strain E. coli pSB1075 (bioluminescence); assay type: cell-based
T1 construct: expressed in transfected cells; host or cells: Escherichia coli carrying plasmid pSB1075
From the text: 1.1.3. The Bacterial Reporter Strain E. coli pSB1075 • A bacterial reporter strain of the Quorum Sensing was used to study the ability of the molecules to be recognized by the Pseudomonas aeruginosa AHL receptor (LasR) and induce an activation. […] This bioluminescent strain was modified by addition of a plasmid pSB1075. This plasmid contains genes encoding both tetracycline resistance and the expression of the LasR AHL receptor from the Pseudomonas aeruginosa bacteria, as well as a fusion gene derived from the LasR promoter and the luxCDABE gene from Photorhabdus luminescence. The bacterial strain was grown in the LB medium supplemented with 5 μg/ml tetracycline to exert a selection pressure and ensure that only the desired strain was amplified. The fusion gene included in the plasmid gives the bacteria the ability to emit a bioluminescence when the LasR receptor is activated, and provides the user with a robust test for the molecular screening. […] On day 1, the culture was diluted 1:100 (P1) in 10 ml of LB medium supplemented with 5 μg/ml tetracycline and maintained for 24 hours at 37° C. under stirring at 70 rpm. On day 2, the experiment took place: a bacterial suspension extemporaneously diluted 1:10 in LB medium supplemented with 5 μg/ml tetracycline (P2) was dispensed into a black opaque 96-well plate and incubated for 4 hours with a range of AHL concentrations or controls until the resulting luminescence was read at the end point. All experiments were performed in triplicates.
1.3. […] This bioluminescent strain was developed by the addition of a plasmid pSB1075 containing genes encoding the tetracycline resistance and the expression of the LasR AHL receptor, as well as a fusion gene of the LasR promoter and the luxCDABE gene of Photorhabdus luminescence. • On day 1, a 1/100 dilution of the bacterial strain (P1) was grown for 24 hours at 37° C. under stirring (70 rpm) in a LB medium containing 5 μg/ml tetracycline (pressure selective). On day 2, P1 was diluted 1:10 in the same medium to obtain P2. In a black 96-well plate were placed 200 μL of P2 and 10 μL of the short chain compound (medium, water and DMSO for the negative controls, C4-HSL as positive control, and the test sample at the desired concentration). The plate was incubated for 4 hours at 37° C. under stirring at 70 rpm. […] After that, the incubation was continued according to the conventional protocol, with the test compound at the desired concentrations.

human keratinocytes = assay: Inhibition of IL-8 secretion by human keratinocytes stimulated by IL-17 and TNF-α; assay type: cell-based; details: test of FIG. 4
human lymphocytes = assay: Inhibition of IL-2 secretion by human lymphocytes stimulated by CD2, CD3 and CD28; assay type: cell-based; details: test of FIG. 5
Caco-2/TC7 cells [1] = assay: Cytotoxicity test, LDH secretion, Caco-2/TC7; assay type: cell-based; details: 1-100 μM; for measured cytotoxicity (LDH): Caco-2/TC7
Procedure: (§1) 1.2.6. […] To measure the concentration of LDH in the cell lysate, 800 μL of NADH was added to 10 μL of […] and 190 μL of 0.1 M PBS in a plastic cuvette, and the decrease in the absorbance at 340 nm was monitored for 1 min. […] The percentage of cytotoxicity could be established with the formula: […]
(§2) The cytotoxicity of the tested and control compounds was evaluated using a measurement test of the LDH (Lactate Dehydrogenase) secretion. This test is based on the measurement of the amount of LDH secreted by the cells in their supernatant, compared to the amount of LDH that will remain in the intracellular compartment. This ratio provides an indication of the membrane damage suffered by the cells, and thus of the cytotoxicity of the compound.
(§3) Two methods were used to perform this test: the measurement using an extemporaneously prepared pyruvate/NADH solution, or using the Cytotoxicity Detection Kit^PLUS(LDH) from the manufacturer Roche (Sigma-Aldrich).
(§4) Pyruvate/NADH method: pyruvate/NADH solution prepared with 4.1 mg pyruvic acid (0.62 mM) and 7.7 mg NADH (0.18 mM) in 60 ml of 0.1M PBS (pH 7.4).
(§5) For the measurement of the LDH concentration in the supernatants, 800 μL of NADH was added to 200 μL of supernatant in plastic spectrometry cuvettes, and the decrease in absorbance of the final solution was read at 340 nm for 1 min. For the measurement of the LDH concentration in the cell lysates, 800 μL of NADH was added to 10 μL of cell lysates and 190 μL of 0.1M PBS in plastic spectrometry cuvettes, and the decrease in absorbance of the final solution was read at 340 nm for 1 min. The percentage of LDH secreted was then calculated by the ratio of the decay slopes of the absorbance of the supernatants and of the cell lysates (respectively).
(§6) Cytotoxicity Detection Kit^PLUS (LDH) method: absorbance test performed according to the manufacturer's instructions. The percentage of LDH secreted was then calculated by the formula: […]

Raw264.7 murine cells = assay: Cytotoxicity test, LDH secretion, Raw264.7; assay type: cell-based; details: as early as 50 μM; basal and stimulated conditions
Procedure: as §1, §2, §3, §4, §5, §6

E. coli K12 strain = assay: Bactericidal dosage on the E. coli K12 strain (absorbance at 600 nm); assay type: cell-based; details: for comparative survival of E. coli K12: all concentrations, maximum 100 μM shown, 18 h
Procedure: 1.1.4. Bactericidal Dosage • The K12 strain of E. coli was grown on agar on day 0 and a colony was transferred to the LYBHI liquid bacterial culture medium on day 1. On day 2, the colony was diluted 1:100 in LYBHI medium and amplified for 18 hours before transfer to an opaque 96-well plate. In each well, LYBHI, controls or increasing doses of tested molecules and bacteria were distributed. The absorbance at 600 nm was read at start-up (t=0) and after an 18-hour incubation. The raw absorbance values were corrected using the absorbance of solutions without bacteria. All experiments were performed twice, each with 4 replicates.
The E. coli K12 strain was cultured at D0 on agar gel, and then a selected colony was transferred to a liquid bacterial culture LYBHI medium at D1. At day 2, this colony was diluted 1:100 in LYBHI medium, and maintained for 18 hours for expansion before distribution in an opaque 96-well plate. In each well were distributed: LYBHI medium, bacterial culture, and test or control compounds. The absorbance of the wells was read at 600 nm at t0 and t18h. The raw absorbance values were corrected against the absorbance of the wells containing only LYBHI medium without bacteria or compounds.

Caco-2/TC7 cells [2] = assay: Stimulation of Caco-2/TC7 cells by IL-1β, IL-8 secretion (ELISA); assay type: cell-based, human
From the text: 1.1.1. The Caco-2/TC7 Cell Line • The Caco-2 cell line is derived from a human colon adenocarcinoma and represents a cell culture model of enterocytes lining the epithelium of the small intestinal. […] During the exponential growth phase (from seeding to confluence), the cells remain undifferentiated. At confluence, they can spontaneously (in the absence of differentiation inducers) differentiate and progressively polarize. The differentiation process, which is a growth-related mechanism, is maximal at the end of confluence (stationary phase of the growth curve). • The cells develop a brush border at the apical pole containing microvilli and with characteristic enterocytic enzymes, such as hydrolases. • In accordance with the published literature, the Caco-2/TC7 cells in our experiments were seeded at 10^5 cells/well (equivalent to 10-12×10^3 cells/cm^2) in 6-well plastic culture plates. The cells were maintained in a glucose-rich medium (high glucose in the DMEM GlutaMAX medium 4.5 g/I glucose) supplemented with 20% heat-inactivated foetal calf serum, 1% nonessential amino acids NEAA, and 1% penicillin streptomycin. The cells were grown at 37° C. in a 10% CO2/air atmosphere. The medium was changed every day. Under these conditions, the cells were confluent on day 6. On day 17, the cells were serum-starved, and were used on day 18.
1.2.1. Stimulation of Caco-2/TC7 with Cytokines • The Caco-2/TC7 cells were seeded in 6-well plates at 100,000 cells/well and grown for 18 days. On day 17, the cells were serum-starved, which means that the cell medium was replaced with a foetal calf serum-free medium, and used on day 18. • The stimulation medium was composed of a medium referred to as “starvation medium”, i.e. without foetal calf serum (DMEM GlutaMAX, 1% NEAA, 1% penicillin-streptomycin) with 100 μM of 2-HQ. The cells were incubated for 18 h at 37° C. with 2 ml of stimulation medium containing 0.1% DMSO (negative control) or stimulation medium containing the compounds tested at desired concentrations, with or without proinflammatory cytokines to induce an inflammation. To induce the inflammation, either the IL-1β at 25 ng/ml or the combination of TNF-α and IFN-γ at 50 ng/ml each were used. After 18 h, the supernatants were collected and stored at −80° C. before analysis by ELISA test. The cells were washed with 1 ml of PBS 1×/well, and lysed in 100 μl of PBS 1× containing 1% Triton X-100. The cells were harvested by scraping and stored at −80° C. before the quantification of the protein. The dosing of the LDH was performed immediately before freezing. • All the experiments on the cells were performed in triplicates.
1.2.4. Quantification of the Human Cytokines by ELISA • The levels of the proinflammatory cytokine IL-8 produced by the cells were determined in the cell supernatants and/or cell lysates using the commercially available IL-8 ELISA detection kit (Duoset Human C×CL8/IL-8, ref. DY208) provided by R & D Systems (Minneapolis, Minn., USA) according to the instructions of the manufacturer. • All the cytokine levels were first normalized to the protein content determined in the corresponding cell lysates. Then, to compare the experiments, they could be further normalized using the activated control condition (DMSO+cytokines) as the 100% response.

T1 sequence (P25084 whole entry): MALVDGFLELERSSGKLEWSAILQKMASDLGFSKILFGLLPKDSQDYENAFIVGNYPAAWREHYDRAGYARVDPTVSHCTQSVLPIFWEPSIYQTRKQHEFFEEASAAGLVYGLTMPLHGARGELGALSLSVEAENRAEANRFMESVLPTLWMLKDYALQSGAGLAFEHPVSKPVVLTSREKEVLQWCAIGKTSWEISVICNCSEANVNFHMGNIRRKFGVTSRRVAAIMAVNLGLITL

## CCCC(=O)N[C@H]1CCOC1=O [C4-HSL, reference compound]
LasR receptor; bacterial reporter strain, read-out: EC50 of LasR receptor activation
  EC50: > 1000 µM

## CC/C=C\C/C=C\CCC(=O)CC(=O)N[C@H]1CCOC1=O [3-oxo-C12:2-HSL, reference compound]
Human keratinocytes
  activity on IL-8 secretion by keratinocytes: inactive
Human lymphocytes
  activity on IL-2 secretion by lymphocytes: inactive
Caco-2/TC7 cells [1]; presence and absence of pro-inflammatory cytokines
  tolerance, Caco-2/TC7: well tolerated
Caco-2/TC7 cells [1]
  measured cytotoxicity (LDH): ≤ 1.5%
Raw264.7 murine cells
  secreted LDH, Raw264.7: an increase in secreted LDH
E. coli K12 strain; 1-100 μM, 18 h of incubation
  bactericidal effect on E. coli K12: No toxic effect

## CCCCCCCCCC(=O)CC(=O)NC1CCSC1=O (racemic) [I-1, 3-oxo-N-(tetrahydro-2-oxo-3-thienyl)-dodecanamide]
Caco-2/TC7 cells [2]; IL-1β stimulation, no concentration range stated
  activity on IL-1β-stimulated Caco-2/TC7 cells compared with natural 3-oxo-C12 HSL: an activity equivalent to that of the natural 3-oxo-C12 HSL
Caco-2/TC7 cells [2]; at the 100 μM dose
  activity on IL-1β-stimulated Caco-2/TC7 cells compared with natural 3-oxo-C12 HSL: more active than the latter
LasR receptor
  EC50: 0.125 µM
E. coli K12 strain
  comparative survival of E. coli K12: No significant differences

## CCCCCCCCCC(=O)CC(=O)N[C@H]1CCOC1=O [3-oxo-C12-HSL, N-(3(S)-oxododecanoyl) homoserine lactone, reference compound]
Human keratinocytes
  activity on IL-8 secretion by keratinocytes: inactive
Human lymphocytes
  activity on IL-2 secretion by lymphocytes: inactive
Caco-2/TC7 cells [1]
  measured cytotoxicity (LDH): ≤ 2.5%
Raw264.7 murine cells
  secreted LDH, Raw264.7: an increase in secreted LDH

## CCCCCCCCCC(=O)CC(=O)N[C@H]1CCSC1=O [I-3, 3-oxo N-[(3S)-tetrahydro-2-oxo-3-thienyl]-dodecanamide]
Caco-2/TC7 cells [2]; at 5 μM, IL-1β-stimulated Caco-2/TC7
  decrease in the inflammatory secretion: 27%
E. coli K12 strain
  comparative survival of E. coli K12: No significant differences
